Results: PubChem BioAssay (NCI)
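Following 48 hours of exposure in 96-well plates, responses at five concentrations were used to interpolate endpoints linearly. Definition used: TGI = concentration required for complete inhibition of growth.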

How the values were obtained:
Assay in all cases: DTP human tumour cell line panel, 48 h
[1] = test system: SK-MEL-28 melanoma
[2] = test system: SR leukemia
[3] = test system: NCI-H522 lung
[4] = test system: CCRF-CEM leukemia
[5] = test system: HCT-116 colon
[6] = test system: TK-10 renal
[7] = test system: UACC-257 melanoma
[8] = test system: MCF7 breast
[9] = test system: OVCAR-5 ovarian
[10] = test system: HS 578T breast
[11] = test system: HCT-15 colon
[12] = test system: PC-3 prostate
[13] = test system: A549 NSCLC
[14] = test system: KM12 colon
[15] = test system: OVCAR-4 ovarian
[16] = test system: MDA-N
[17] = test system: NCI/ADR-RES ovarian
[18] = test system: HCC-2998 colon
[19] = test system: NCI-H23 lung
[20] = test system: NCI-H460 lung
[21] = test system: MDA-MB-231 breast
[22] = test system: DU-145 prostate
[23] = test system: MDA-MB-435
[24] = test system: ACHN renal
[25] = test system: CAKI-1 renal
[26] = test system: SK-OV-3 ovarian
[27] = test system: RXF 393 renal
[28] = test system: OVCAR-3 ovarian
[29] = test system: LOX IMVI melanoma
[30] = test system: EKVX NSCLC
[31] = test system: SF-268 CNS
[32] = test system: SK-MEL-5 melanoma
[33] = test system: 786-0 renal
[34] = test system: RPMI-8226 leukemia
[35] = test system: MOLT-4 leukemia
[36] = test system: K-562 leukemia
[37] = test system: NCI-H226 lung
[38] = test system: HT29 colon
[39] = test system: M14 melanoma
[40] = test system: T-47D breast
[41] = test system: SNB-19 CNS
[42] = test system: BT-549 breast
[43] = test system: A498 renal
[44] = test system: UO-31 renal
[45] = test system: HOP-62 NSCLC
[46] = test system: SN12C renal
[47] = test system: SK-MEL-2 melanoma
[48] = test system: HL-60(TB) leukemia
[49] = test system: SW-620 colon
[50] = test system: COLO 205 colon
[51] = test system: SF-295 CNS
[52] = test system: U251 CNS
[53] = test system: SF-539 CNS
[54] = test system: IGROV1 ovarian
[55] = test system: HOP-92 NSCLC
[56] = test system: OVCAR-8 ovarian
[57] = test system: UACC-62 melanoma
[58] = test system: SNB-75 CNS
[59] = test system: MALME-3M melanoma

Measured: TGI

CC12Nc3ccccc3N1C(=O)c1ccccc12 (centres undefined)
not listed: [58] | [59]
> 100 µM: all other assays above

O=C(NNC1=NCCN1)c1ccco1
not listed: [25] | [43]
> 100 µM: all other assays above
